According to ChEMBL document CHEMBL1155237, “Selective inhibitors of the mutant B-Raf pathway: discovery of a potent and orally bioavailable aminoisoquinoline” (J Med Chem, 2009):

Key:
[1] = molecular target: Vascular endothelial growth factor receptor 2 (Homo sapiens, UniProt P35968); test: Inhibition of KDR
[2] = Oral bioavailability in Sprague-Dawley rat at 5 mg/kg; assay type: ADME, organism-based; conditions: in vivo
[3] = molecular target: Myosin light chain kinase, smooth muscle (Homo sapiens) (UniProt Q15746); test: Inhibition of MLCK assessed as enzyme activity at 1 uM relative to untreated control; parameters: scale not given: the % may be the effect or the level left
[4] = molecular target: Mitogen-activated protein kinase kinase kinase 9 (Homo sapiens) (UniProt P80192); test: Inhibition of MLK1 assessed as enzyme activity at 1 uM relative to untreated control; parameters: scale not given: the % may be the effect or the level left
[5] = molecular target: Mitogen-activated protein kinase kinase kinase 10 (Homo sapiens) (UniProt Q02779); test: Inhibition of MLK2 assessed as enzyme activity at 1 uM relative to untreated control; parameters: scale not given: the % may be the effect or the level left
[6] = molecular target: Muscle, skeletal receptor tyrosine-protein kinase (Homo sapiens) (UniProt O15146); test: Inhibition of MUSK assessed as enzyme activity at 1 uM relative to untreated control; parameters: scale not given: the % may be the effect or the level left
[7] = molecular target: Serine/threonine-protein kinase Nek6 (Homo sapiens) (UniProt Q9HC98); test: Inhibition of NEK6 assessed as enzyme activity at 1 uM relative to untreated control; parameters: scale not given: the % may be the effect or the level left
[8] = molecular target: Tyrosine-protein kinase JAK2 (Homo sapiens) (UniProt O60674); test: Inhibition of JAK2 kinase domain 2 assessed as enzyme activity at 1 uM relative to untreated control; parameters: scale not given: the % may be the effect or the level left
[9] = molecular target: Tyrosine-protein kinase Lyn (Homo sapiens) (UniProt P07948); test: Inhibition of LYN assessed as enzyme activity at 1 uM relative to untreated control; parameters: scale not given: the % may be the effect or the level left
[10] = molecular target: Mitogen-activated protein kinase kinase kinase 3 (Homo sapiens) (UniProt Q99759); test: Inhibition of MAP3K3 assessed as enzyme activity at 1 uM relative to untreated control; parameters: scale not given: the % may be the effect or the level left
[11] = molecular target: Mitogen-activated protein kinase kinase kinase kinase 3 (Homo sapiens) (UniProt Q8IVH8); test: Inhibition of MAP4K3 assessed as enzyme activity at 1 uM relative to untreated control; parameters: scale not given: the % may be the effect or the level left
[12] = molecular target: Bone morphogenetic protein receptor type-2 (Homo sapiens) (UniProt Q13873); test: Inhibition of BMPR2 assessed as enzyme activity at 1 uM relative to untreated control; parameters: scale not given: the % may be the effect or the level left
[13] = molecular target: Cyclin-dependent kinase 3 (Homo sapiens) (UniProt Q00526); test: Inhibition of CDK3 assessed as enzyme activity at 1 uM relative to untreated control; parameters: scale not given: the % may be the effect or the level left
[14] = molecular target: Serine/threonine-protein kinase Chk2 (Homo sapiens) (UniProt O96017); test: Inhibition of CHEK2 assessed as enzyme activity at 1 uM relative to untreated control; parameters: scale not given: the % may be the effect or the level left
[15] = molecular target: Dual specificity protein kinase CLK4 (Homo sapiens) (UniProt Q9HAZ1); test: Inhibition of CLK4 assessed as enzyme activity at 1 uM relative to untreated control; parameters: scale not given: the % may be the effect or the level left
[16] = molecular target: cGMP-dependent protein kinase 1 (Homo sapiens) (UniProt Q13976); test: Inhibition of PRKG1 assessed as enzyme activity at 1 uM relative to untreated control; parameters: scale not given: the % may be the effect or the level left
[17] = molecular target: Myosin light chain kinase family member 4 (Homo sapiens) (UniProt Q86YV6); test: Inhibition of SgK085 assessed as enzyme activity at 1 uM relative to untreated control; parameters: scale not given: the % may be the effect or the level left
[18] = molecular target: Ephrin type-B receptor 2 (Homo sapiens) (UniProt P29323); test: Inhibition of EPHB2 assessed as enzyme activity at 1 uM relative to untreated control; parameters: scale not given: the % may be the effect or the level left
[19] = test system: Receptor-type tyrosine-protein kinase FLT3 (Homo sapiens), P36888 [K663Q]; test: Inhibition of FLT3 K663Q mutant assessed as enzyme activity at 1 uM relative to untreated control; parameters: scale not given: the % may be the effect or the level left
[20] = molecular target: Cyclin-G-associated kinase (Homo sapiens) (UniProt O14976); test: Inhibition of GAK assessed as enzyme activity at 1 uM relative to untreated control; parameters: scale not given: the % may be the effect or the level left
[21] = test system: eIF-2-alpha kinase GCN2 (Homo sapiens), Q9P2K8 [S808G]; test: Inhibition of GCN2 kinase domain-2 S808G mutant assessed as enzyme activity at 1 uM relative to untreated control; parameters: scale not given: the % may be the effect or the level left
[22] = molecular target: Tyrosine-protein kinase ITK/TSK (Homo sapiens) (UniProt Q08881); test: Inhibition of ITK assessed as enzyme activity at 1 uM relative to untreated control; parameters: scale not given: the % may be the effect or the level left
[23] = test system: Epidermal growth factor receptor (Homo sapiens), P00533 [L858R]; test: Inhibition of EGFR L858R mutant assessed as enzyme activity at 1 uM relative to untreated control; assay type: protein assay; parameters: scale not given: the % may be the effect or the level left
[24] = test system: Epidermal growth factor receptor (Homo sapiens), P00533 [L861Q]; test: Inhibition of EGFR L861Q mutant assessed as enzyme activity at 1 uM relative to untreated control; assay type: protein assay; parameters: scale not given: the % may be the effect or the level left
[25] = molecular target: Ephrin type-A receptor 3 (Homo sapiens) (UniProt P29320); test: Inhibition of EPHA3 assessed as enzyme activity at 1 uM relative to untreated control; parameters: scale not given: the % may be the effect or the level left
[26] = molecular target: Ephrin type-A receptor 5 (Homo sapiens) (UniProt P54756); test: Inhibition of EPHA5 assessed as enzyme activity at 1 uM relative to untreated control; parameters: scale not given: the % may be the effect or the level left
[27] = molecular target: Serine/threonine-protein kinase 33 (Homo sapiens) (UniProt Q9BYT3); test: Inhibition of STK33 assessed as enzyme activity at 1 uM relative to untreated control; parameters: scale not given: the % may be the effect or the level left
A-375 = test: Antitumor activity against human A375 SQ2 cells xenografted in CD1 mouse assessed as regression of tumor growth at 5 mg/kg, po qd for 14 days; assay type: functional
[28] = molecular target: Serine/threonine-protein kinase PAK 6 (Homo sapiens) (UniProt Q9NQU5); test: Inhibition of PAK6 assessed as enzyme activity at 1 uM relative to untreated control; parameters: scale not given: the % may be the effect or the level left
[29] = molecular target: Cyclin-dependent kinase 14 (Homo sapiens) (UniProt O94921); test: Inhibition of PFTK1 assessed as enzyme activity at 1 uM relative to untreated control; parameters: scale not given: the % may be the effect or the level left
[30] = molecular target: Phosphatidylinositol 4-phosphate 3-kinase C2 domain-containing subunit beta (Homo sapiens) (UniProt O00750); test: Inhibition of PIK3C2B assessed as enzyme activity at 1 uM relative to untreated control; parameters: scale not given: the % may be the effect or the level left
[31] = molecular target: Protein kinase C delta type (Homo sapiens) (UniProt Q05655); test: Inhibition of PRKCdelta assessed as enzyme activity at 1 uM relative to untreated control; parameters: scale not given: the % may be the effect or the level left
[32] = molecular target: Tyrosine-protein kinase SYK (Homo sapiens) (UniProt P43405); test: Inhibition of SYK assessed as enzyme activity at 1 uM relative to untreated control; parameters: scale not given: the % may be the effect or the level left
[33] = molecular target: Serine/threonine-protein kinase TAO1 (Homo sapiens) (UniProt Q7L7X3); test: Inhibition of TAOK1 assessed as enzyme activity at 1 uM relative to untreated control; parameters: scale not given: the % may be the effect or the level left
[34] = molecular target: Serine/threonine-protein kinase TNNI3K (Homo sapiens) (UniProt Q59H18); test: Inhibition of TNNI3K assessed as enzyme activity at 1 uM relative to untreated control; parameters: scale not given: the % may be the effect or the level left
[35] = molecular target: Testis-specific serine/threonine-protein kinase 1 (Homo sapiens) (UniProt Q9BXA7); test: Inhibition of TSSK1 assessed as enzyme activity at 1 uM relative to untreated control; parameters: scale not given: the % may be the effect or the level left
[36] = molecular target: Dual specificity protein kinase TTK (Homo sapiens) (UniProt P33981); test: Inhibition of TTK assessed as enzyme activity at 1 uM relative to untreated control; parameters: scale not given: the % may be the effect or the level left
[37] = molecular target: Serine/threonine-protein kinase ULK2 (Homo sapiens) (UniProt Q8IYT8); test: Inhibition of ULK2 assessed as enzyme activity at 1 uM relative to untreated control; parameters: scale not given: the % may be the effect or the level left

Chain of Testis-specific serine/threonine-protein kinase 1 (Homo sapiens) (Q9BXA7 whole entry): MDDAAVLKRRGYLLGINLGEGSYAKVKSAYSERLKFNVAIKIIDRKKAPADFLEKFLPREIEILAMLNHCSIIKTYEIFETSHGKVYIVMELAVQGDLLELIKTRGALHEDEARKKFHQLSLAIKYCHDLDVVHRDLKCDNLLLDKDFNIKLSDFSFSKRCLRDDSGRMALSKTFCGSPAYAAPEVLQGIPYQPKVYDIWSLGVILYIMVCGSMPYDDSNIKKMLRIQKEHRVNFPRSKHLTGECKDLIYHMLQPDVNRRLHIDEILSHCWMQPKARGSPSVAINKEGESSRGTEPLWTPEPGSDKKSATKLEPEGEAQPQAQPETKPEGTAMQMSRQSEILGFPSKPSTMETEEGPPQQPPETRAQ
Chain of Dual specificity protein kinase TTK (Homo sapiens) (P33981 whole entry): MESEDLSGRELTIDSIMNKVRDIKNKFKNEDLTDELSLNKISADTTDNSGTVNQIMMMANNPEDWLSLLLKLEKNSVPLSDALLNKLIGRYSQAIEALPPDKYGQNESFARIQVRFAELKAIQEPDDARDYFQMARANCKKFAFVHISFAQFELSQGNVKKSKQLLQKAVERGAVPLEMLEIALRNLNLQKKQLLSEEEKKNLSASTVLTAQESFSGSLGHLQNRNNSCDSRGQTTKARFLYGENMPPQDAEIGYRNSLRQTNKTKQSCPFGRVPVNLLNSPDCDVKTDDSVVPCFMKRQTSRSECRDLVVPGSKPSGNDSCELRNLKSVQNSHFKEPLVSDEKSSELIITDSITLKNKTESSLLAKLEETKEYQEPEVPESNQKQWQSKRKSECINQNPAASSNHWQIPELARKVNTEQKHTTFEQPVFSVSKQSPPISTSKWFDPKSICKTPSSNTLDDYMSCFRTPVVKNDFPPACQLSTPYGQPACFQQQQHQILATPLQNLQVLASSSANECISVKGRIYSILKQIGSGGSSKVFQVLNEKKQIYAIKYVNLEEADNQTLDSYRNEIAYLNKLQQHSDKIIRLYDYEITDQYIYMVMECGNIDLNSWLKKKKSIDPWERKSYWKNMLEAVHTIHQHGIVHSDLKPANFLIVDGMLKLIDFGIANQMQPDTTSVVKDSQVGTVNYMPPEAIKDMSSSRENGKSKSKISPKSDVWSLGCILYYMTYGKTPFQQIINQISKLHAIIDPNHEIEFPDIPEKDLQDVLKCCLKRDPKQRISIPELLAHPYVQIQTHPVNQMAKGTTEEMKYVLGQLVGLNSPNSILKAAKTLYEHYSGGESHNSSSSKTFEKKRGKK
Chain of Myosin light chain kinase, smooth muscle (Homo sapiens) (Q15746 whole entry): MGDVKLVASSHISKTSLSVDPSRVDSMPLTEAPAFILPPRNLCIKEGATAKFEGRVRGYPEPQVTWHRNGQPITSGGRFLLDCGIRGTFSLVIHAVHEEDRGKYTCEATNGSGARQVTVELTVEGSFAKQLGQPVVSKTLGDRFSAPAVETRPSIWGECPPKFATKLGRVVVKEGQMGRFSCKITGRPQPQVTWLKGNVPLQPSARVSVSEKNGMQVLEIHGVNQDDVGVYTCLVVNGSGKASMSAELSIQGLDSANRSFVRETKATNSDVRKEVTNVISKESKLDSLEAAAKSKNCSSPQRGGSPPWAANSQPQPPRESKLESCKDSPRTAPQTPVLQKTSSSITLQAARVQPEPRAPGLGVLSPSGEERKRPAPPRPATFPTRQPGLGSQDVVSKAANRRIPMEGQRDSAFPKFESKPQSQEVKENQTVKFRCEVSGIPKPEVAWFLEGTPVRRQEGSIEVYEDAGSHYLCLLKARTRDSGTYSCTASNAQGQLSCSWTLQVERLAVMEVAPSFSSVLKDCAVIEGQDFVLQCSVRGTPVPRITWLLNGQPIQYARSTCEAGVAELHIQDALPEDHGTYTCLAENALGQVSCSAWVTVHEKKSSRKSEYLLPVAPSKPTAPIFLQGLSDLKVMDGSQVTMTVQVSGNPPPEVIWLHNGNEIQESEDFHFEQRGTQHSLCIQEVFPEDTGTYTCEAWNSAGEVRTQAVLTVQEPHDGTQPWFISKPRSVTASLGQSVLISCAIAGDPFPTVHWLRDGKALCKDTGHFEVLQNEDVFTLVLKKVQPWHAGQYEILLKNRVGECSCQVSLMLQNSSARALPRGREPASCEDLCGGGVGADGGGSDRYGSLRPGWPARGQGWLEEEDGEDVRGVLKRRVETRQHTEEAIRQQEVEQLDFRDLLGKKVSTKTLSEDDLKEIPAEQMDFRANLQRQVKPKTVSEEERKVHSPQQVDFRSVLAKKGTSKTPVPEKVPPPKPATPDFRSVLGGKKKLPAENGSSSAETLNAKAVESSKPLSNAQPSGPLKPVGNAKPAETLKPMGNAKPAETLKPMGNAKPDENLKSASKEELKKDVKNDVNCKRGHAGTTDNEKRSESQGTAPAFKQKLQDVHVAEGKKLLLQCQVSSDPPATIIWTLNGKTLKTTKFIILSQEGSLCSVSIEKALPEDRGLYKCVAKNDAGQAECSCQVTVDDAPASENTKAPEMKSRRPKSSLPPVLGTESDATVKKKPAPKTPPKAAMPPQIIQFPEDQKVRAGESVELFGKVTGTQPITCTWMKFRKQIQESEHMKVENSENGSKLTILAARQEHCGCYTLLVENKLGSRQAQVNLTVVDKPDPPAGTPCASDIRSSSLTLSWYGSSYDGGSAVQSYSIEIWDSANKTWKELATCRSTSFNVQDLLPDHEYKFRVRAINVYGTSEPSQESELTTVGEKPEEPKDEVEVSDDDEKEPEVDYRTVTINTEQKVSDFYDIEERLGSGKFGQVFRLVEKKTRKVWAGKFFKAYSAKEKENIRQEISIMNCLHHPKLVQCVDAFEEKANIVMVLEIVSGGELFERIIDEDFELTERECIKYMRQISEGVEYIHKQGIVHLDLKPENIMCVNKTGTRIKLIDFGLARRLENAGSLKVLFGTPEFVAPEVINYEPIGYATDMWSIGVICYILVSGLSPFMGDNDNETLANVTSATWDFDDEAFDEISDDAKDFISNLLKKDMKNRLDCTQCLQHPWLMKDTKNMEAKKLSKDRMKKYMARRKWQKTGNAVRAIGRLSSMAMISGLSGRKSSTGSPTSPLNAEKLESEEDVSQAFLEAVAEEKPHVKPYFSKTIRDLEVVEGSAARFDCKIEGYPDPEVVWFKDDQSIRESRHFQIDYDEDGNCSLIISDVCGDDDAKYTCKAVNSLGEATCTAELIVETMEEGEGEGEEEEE
Chain of Serine/threonine-protein kinase TAO1 (Homo sapiens) (Q7L7X3 whole entry): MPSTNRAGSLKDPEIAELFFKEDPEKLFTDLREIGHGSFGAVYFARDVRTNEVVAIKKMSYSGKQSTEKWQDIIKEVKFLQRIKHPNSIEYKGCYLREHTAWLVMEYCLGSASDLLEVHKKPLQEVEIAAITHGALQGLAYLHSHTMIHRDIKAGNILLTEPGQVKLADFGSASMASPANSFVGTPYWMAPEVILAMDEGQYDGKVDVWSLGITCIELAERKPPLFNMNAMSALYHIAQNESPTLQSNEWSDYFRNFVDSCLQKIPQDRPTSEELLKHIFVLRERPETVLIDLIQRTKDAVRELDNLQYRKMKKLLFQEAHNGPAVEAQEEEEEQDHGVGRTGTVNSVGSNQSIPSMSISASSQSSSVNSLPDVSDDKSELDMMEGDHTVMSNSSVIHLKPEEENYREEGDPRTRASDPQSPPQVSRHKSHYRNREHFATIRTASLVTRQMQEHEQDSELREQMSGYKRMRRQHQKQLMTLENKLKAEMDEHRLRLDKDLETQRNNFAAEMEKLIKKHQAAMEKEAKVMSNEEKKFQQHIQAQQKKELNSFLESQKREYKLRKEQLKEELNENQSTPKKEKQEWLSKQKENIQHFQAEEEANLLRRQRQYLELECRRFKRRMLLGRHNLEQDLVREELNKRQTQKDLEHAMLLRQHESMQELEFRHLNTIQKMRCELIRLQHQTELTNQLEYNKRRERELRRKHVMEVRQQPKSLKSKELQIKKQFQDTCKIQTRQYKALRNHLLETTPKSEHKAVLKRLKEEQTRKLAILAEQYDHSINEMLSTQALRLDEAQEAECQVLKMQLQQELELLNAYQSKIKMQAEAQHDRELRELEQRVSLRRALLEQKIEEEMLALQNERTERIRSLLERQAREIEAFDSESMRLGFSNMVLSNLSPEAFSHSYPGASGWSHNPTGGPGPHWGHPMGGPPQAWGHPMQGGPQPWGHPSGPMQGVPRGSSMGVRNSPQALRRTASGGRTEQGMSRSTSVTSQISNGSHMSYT
Chain of Serine/threonine-protein kinase PAK 6 (Homo sapiens) (Q9NQU5 whole entry, looked up): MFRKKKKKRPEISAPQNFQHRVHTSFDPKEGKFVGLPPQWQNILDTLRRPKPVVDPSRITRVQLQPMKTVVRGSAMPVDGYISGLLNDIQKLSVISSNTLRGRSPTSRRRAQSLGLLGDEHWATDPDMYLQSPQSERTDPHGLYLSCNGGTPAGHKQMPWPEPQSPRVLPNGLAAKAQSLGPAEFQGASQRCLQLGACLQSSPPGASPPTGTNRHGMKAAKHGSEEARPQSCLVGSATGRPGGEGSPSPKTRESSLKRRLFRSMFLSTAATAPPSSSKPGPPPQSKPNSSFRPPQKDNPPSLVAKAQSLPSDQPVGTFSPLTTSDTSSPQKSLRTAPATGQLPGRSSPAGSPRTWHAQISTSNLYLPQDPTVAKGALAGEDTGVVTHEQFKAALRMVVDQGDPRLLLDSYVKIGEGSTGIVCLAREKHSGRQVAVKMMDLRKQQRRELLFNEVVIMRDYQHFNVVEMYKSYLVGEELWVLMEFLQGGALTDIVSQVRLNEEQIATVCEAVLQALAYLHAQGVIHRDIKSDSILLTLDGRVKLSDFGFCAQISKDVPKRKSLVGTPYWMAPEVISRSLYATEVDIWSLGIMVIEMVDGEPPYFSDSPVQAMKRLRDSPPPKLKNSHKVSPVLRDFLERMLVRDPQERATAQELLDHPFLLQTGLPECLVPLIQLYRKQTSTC

Cc1ccc2c(Nc3ccc(Cl)cc3)nccc2c1Nc1ncccc1-c1ncnc2[nH]cnc12.Cl.Cl.Cl
IC50 [1]: 1 µM | bioavailability [2]: 80% | Activity [3]: 99% | Activity [4]: 100% | Activity [5]: 99% | Activity [6]: 66% | Activity [7]: 100% | Activity [8]: 3.9% | Activity [9]: 18% | Activity [10]: 40% | Activity [11]: 85% | Activity [12]: 100% | Activity [13]: 84% | Activity [14]: 100% | Activity [15]: 100% | Activity [16]: 93% | Activity [17]: 100% | Activity [18]: 6.1% | Activity [19]: 75% | Activity [20]: 92% | Activity [21]: 100% | Activity [22]: 100% | Activity [23]: 100% | Activity [24]: 86% | Activity [25]: 74% | Activity [26]: 16% | Activity [27]: 100% | Activity (A-375): 85% | Activity [28]: 100% | Activity [29]: 100% | Activity [30]: 100% | Activity [31]: 88% | Activity [32]: 86% | Activity [33]: 88% | Activity [34]: 21% | Activity [35]: 71% | Activity [36]: 100% | Activity [37]: 100%
